The source of these data is patent US20220233503A1, “METHODS OF TREATING SEPSIS WITH SYNAPTIC VESICLE 2A AND/OR 2B BINDING CHEMICAL ENTITIES” (INSTITUT PASTEUR, priority 2016, published 2022).

One series concerns microglial cells. The series is described as follows: Morphological analysis of microglial cells (Iba-1 staining) after sepsis. It counts as in vivo, mice. The protocol:
Immunohistochemistry: Mice were perfused through left ventricule with paraformaldehyde 4% and the collected brains with small forceps. Brain were fixed overnight with PFA 4% and then cut in 100 μm sagittal slices with a vibratome VT1200S (Leica, Germany). Ionized calcium binding adaptor type 1 immunohistochemistry. Brain sections were washed with PBS and aspecific binding sites were saturated with a bovine serum albumine 3% in PBS solution for 4 hours. Then primary antibody (Rabbit, Wako, 40 ng/μl) was applied for 24 hours at 4° C. under constant agitation. Cyanine 3 secondary antibody (Donkey anti-Rabbit) and Hoechst 33342 (1/4000) was then applied overnight at 4° C. with constant agitation.
Imaging of samples was realized in a medium throughput spinning disk confocal microscope (CV1000) on 5×5 mozaics reconstructed with an overlap of 50% to avoid signal intensity lowering on the edge of tiles. Stitching was realized using a homemade macro with the Grid/collection plugin for Fiji channel by channel and then manually realligned if necessary. Automated analysis of microglial cell was realized on Iba1 staining. Automatic local contrast thresholding using Phanshalkar algorithm with a radius of 2 μm was performed for microglia channel, and with a radius of 12 μm for nuclei channel. Microglial cells were identified using a fixed empirical threshold for percentage of perinuclear area stained by Iba-1 using thresholded image. Only individual microglial cells obtained after segmentation with a tridimensionnal watershed algorithm were furthered considered for analysis. Morphometric study of microglial cells were performed using mcib3d plugin for FIJI. Concentric envelopes were computed starting 1 μm after nuclear envelope to analyze the number of microglial process crossing this sphere and reproduce a conformational tridimensional analysis on microglial cells.
Individual and summarized data were then analyzed in R statistics. Area under the curve of number of microglial processes. When covariant variables were identified, the most relevant was considered.
FIG. 3 (G, H, I). […]

For a further series, the system named is Caspase 3. The series can be described thus: Caspase 3 cleavage and apoptotic cell count in brain after sepsis. The series is classed as in vivo. Conditions: septic mice, Western blot cleaved caspase 3 vs procaspase 3, whole brain. Background: A western blot detects proteins with antibodies after separation by electrophoresis.
For series [1] the following is noted: cited from earlier work.

Text for Caspase 3: A—Western Blot from cleaved caspase 3 from macerated brain parenchyma. B—Mean±SEM of ratios between intensity of cleaved caspase 3 vs. procaspase 3. […] D-G Cell count for late and early stage of apoptosis. WM Whitte matter, DG, Dentate Gyms, CC3 Cleaved Caspase 3.

On to `CC[C@@H](C(N)=O)N1CCCC1=O` (single isomer, unassigned) [levetiracetam], for which, in the series with microglial cells (4 main components of 107 morphological criteria, septic mice), the “principal components of microglial morphology” value was “different”. Also, in the series on microglial cells (6 hours after sepsis, CeA and B1A), the “microglial cell morphological changes” value was “decreased”. Also, the “number of microglial cell processes” value in the series on microglial cells (15 days after sepsis) is recorded as “increased dramatically”. Moreover, the “cleavage of Caspase 3 in the brain” value with Caspase 3 is “reduces”. In addition, in series [1] (acetonitrile), the solubility in acetonitrile is recorded as 5.7 g/100 mL. Moreover, the solubility in chloroform in series [1] (chloroform) is 65.3 g/100 mL. Further, the solubility in ethanol in series [1] (ethanol) is 16.5 g/100 mL. Moreover, the solubility in methanol in series [1] (methanol) is 53.6 g/100 mL. Also, in series [1] (n-hexane), the solubility in n-hexane entry was “practically insoluble”. Further, in series [1] (water), the solubility in water is recorded as 104.0 g/100 mL.
